Data: PubChem BioAssay (NCI)
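Step 1: Grow cells in 96-well plates. Step 2: Expose to compound for 48 hours at 5 concentrations. Step 3: Interpolate endpoints linearly; if unreached, use highest concentration. GI50 = concentration required for 50% inhibition of growth. TGI marks complete inhibition of growth.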

Experiments:
Assay in all cases: NCI-60 cell line screen, 48 h
DMS 273 small cell lung = test system: DMS 273 small cell lung
SNB-78 CNS = test system: SNB-78 CNS
XF 498 CNS = test system: XF 498 CNS
RXF-631 renal = test system: RXF-631 renal

Compound	TGI (DMS 273 small cell lung)	TGI (SNB-78 CNS)	TGI (XF 498 CNS)	TGI (RXF-631 renal)	GI50 (DMS 273 small cell lung)	GI50 (SNB-78 CNS)
Cc1ccc(S(=O)(=O)c2ccc(C)cc2[N+](=O)[O-])c([N+](=O)[O-])c1	> 100 µM	> 100 µM	> 100 µM	–	–	–
Cc1c(-c2coc(-c3ccc([N+](=O)[O-])cc3)n2)c(=O)n(-c2ccccc2)n1C	> 100 µM	> 100 µM	–	–	–	–
O=C(O)C12C3CCC(C3)C1(C(=O)O)C1CCC2C1 (stereo not given)	> 100 µM	> 100 µM	> 100 µM	> 100 µM	–	–
CN1CCS(=O)(=O)NC(Cc2ccccc2)C(=O)N2CCCC2C1=O (stereo not given)	> 100 µM	> 100 µM	> 100 µM	–	–	–
O=c1[nH]c(=O)n([C@H]2C[C@@H](CO)[C@@H](O)C2)cc1I	> 100 µM	> 100 µM	–	–	–	–
COc1cc2ccnc(C#N)c2cc1OCc1ccccc1	–	> 100 µM	> 100 µM	–	–	–
O=C1CCC(=O)c2ccccc2N1	> 100 µM	–	> 100 µM	–	–	–
CN(C)CC1(Cc2ccccc2)CC/C(=C\c2ccccc2)C1=O (stereo not given)	> 100 µM	> 100 µM	> 100 µM	83.7 µM	–	–
O=C1c2ccccc2C(=O)c2c1oc1cc(O)c(Cl)cc21	10.8 µM	19.5 µM	20.2 µM	–	–	–
N#Cc1ccc(C2OCC3CC=CCC3CO2)cc1 (stereo not given)	–	> 100 µM	> 100 µM	> 100 µM	–	–
COc1ccccc1/C=C1\CCC(Cc2ccccc2)(CN(C)C)C1=O (stereo not given)	2.48 µM	> 23.2 µM	> 72.6 µM	9.92 µM	–	–
c1ccc2cc(C3NCCc4[nH]cnc43)ccc2c1 (stereo not given)	> 100 µM	> 100 µM	–	–	–	–
CCOC(=O)/C(C1=NCCN1C)=C(\O)c1ccccc1	–	> 100 µM	> 100 µM	–	–	–
COc1ccc(S(=O)(=O)N/N=C(\C)CN2C(=O)c3ccccc3C2=O)cc1OC	> 100 µM	> 100 µM	> 100 µM	–	–	–
N#CCCC(C#N)(C#N)CCC#N	> 100 µM	–	> 100 µM	–	–	–
O=c1cccccc1[O-].O=c1cccccc1[O-].O=c1cccccc1[O-].[Nd+3]	> 100 µM	> 100 µM	–	–	14.3 µM	20.6 µM
COP12(OC)NC(=O)OC1(C(F)(F)F)c1ccccc1O2 (stereo not given)	> 100 µM	> 100 µM	> 100 µM	–	–	–
Cc1ccccc1N(CCC#N)C1=NN(C(=O)CC(=O)Nc2ccc(Cl)cc2)C(c2ccccc2)C1 (stereo not given)	> 100 µM	> 100 µM	–	> 100 µM	–	–
COc1cc(C2C(C(=O)NCc3ccccc3)=C(C)NC(C)=C2C(=O)NCc2ccccc2)ccc1O	> 100 µM	> 100 µM	> 100 µM	> 100 µM	–	–
